This is an account of results in patent US20090053168A1, “TREATMENTS OF B-CELL PROLIFERATIVE DISORDERS” (priority 2007, published 2009).

pIC50: −log10 of the molar value. Like-named read-outs stand apart in the source and are kept apart here.

A word on the pIC50: it is the IC50 on a negative log10 scale, so that one unit is a factor of ten.

Test [1] concerns mantle cell lymphoma cell line JVM-13. Kind of test: Anti-proliferation assay (ATPLite, 72 h), JVM-13. The format is cell-based, human. As for the experimental part:
(§1) All of the cell lines were cultured in RPMI-1640 media supplemented with 10% FBS except OCI Ly10 cells (IMDM media supplemented with 20% human serum). The ANBL-6 cell line culture media also contained 10 ng/ml IL-6. MM.1S, MM.1R, SU-DHL6, Karpas 422, and OCI ly10 cells were provided by the Dana Farber Cancer Institute. ANBL-6 cells were provided by Bob Orlowsli (M.D. Anderson Cancer Research Center). H929, RPMI-8226, GA-10, Farage, Mino, JVM-13, Pfeiffer, Toledo, and Kusami-1 cells were from ATCC (Cat #'s CCL-155, CRL-9068, CRL-2392 CRL-2630, CRL-3000, CRL-3003, CRL-2632, CRL-2631, and CRL-2724 respectively). MOLP-8, OPM2, EJM, and KSM-12-PE cells were from DSMZ.
(§2) Compounds were prepared in DMSO at 1000× the highest desired concentration. Master plates were generated consisting of serially diluted compounds in 2- or 3-fold dilutions in 384-well format. For single agent dose response curves, the master plates consisted of 9 individual compounds at 12 concentrations in 2- or 3-fold dilutions. For combination matrices, master plates consisted of individual compounds at 6 or 9 concentrations at 2- or 3-fold dilutions.
(§3) The average untreated well value (avg. untreated wells) is the arithmetic mean of 40 wells from the same assay plate treated with vehicle alone. Negative inhibition values result from local variations in treated wells as compared to untreated wells.
(§4) The uncertainty of each fitted parameter was estimated from the range over which the change in reduced chi-squared was less than one, or less than minimum reduced chi-squared if that minimum exceeded one, to allow for underestimated σI errors.
(§5) Single agent curve data were used to define a dilution series for each compound to, be used for combination screening in a 6×6 matrix format. […] For compounds with no detectable single agent activity, a dilution factor of 4 was used, starting from the highest achievable concentration.
(§6) The Loewe additivity model was used to quantify combination effects. Combinations were ranked initially by Additivity Excess Volume, which is defined as ADD Volume=ΣCX, CY(Idata−ILoewe). where ILoewe(CX,CY) is the inhibition that satisfies (CX/ECX)+(CY/ECY)=1, and ECX,Y are the effective concentrations at ILoewe for the single agent curves. A “Synergy Score” was also used, where the Synergy Score S=log fX log fY ΣIdata (Idata−ILoewe), summed over all non-single-agent concentration pairs, and where log fX,Y is the natural logarithm of the dilution factors used for each single agent.
(Cellular ATP, detected with luciferase, serves as a proxy for viable cell number.)

Test [2] relates to mantle cell lymphoma cell line Mino. Briefly: Anti-proliferation assay (ATPLite, 72 h), Mino. The class given is cell-based, human. The protocol:
as §1, §2, §3, §4, §5, §6

A further test has as its system OPM2 cells. Kind of test: Anti-proliferation assay (ATPLite, 72 h), OPM2. The format is cell-based, human. Conditions: for synergy score: in combination with CGS-21680, OPM-8.
Test [3] deals with MM.1S cells. Kind of test: Anti-proliferation assay (ATPLite, 72 h), MM.1S. The settings on record: for activity and synergy in antiproliferation assays: RPMI-8226, H929, MM.1S and MM.1R MM cell lines; for percent inhibition of cell proliferation: DEX 0 nM; for percent inhibition of cell proliferation / synergy score: MM.1S; for synergy score: in combination with CGS-21680.
The test system of test [4] is Farage (non-Hodgkin's B cell lymphoma) cells. Kind of test: Anti-proliferation assay (ATPLite, 72 h), Farage. The class given is cell-based. The settings on record: x dexamethasone.
The test system of test [5] is GA-10 (Burkitt's lymphoma) cells. Kind of test: Anti-proliferation assay (ATPLite, 72 h), GA-10. The class given is cell-based. The settings on record: x dexamethasone.
The subject of test [6] is MM.1S cells.
A further test deals with RPMI-8226 cells. Briefly: Anti-proliferation assay (ATPLite, 72 h), RPMI-8226. The settings on record: combination with dexamethasone; Loewe-based Synergy Score; 72 h. The format is cell-based.
The test system of the next test is H929 cells. Briefly: Anti-proliferation assay (ATPLite, 72 h), H929. The format is cell-based. Conditions: combination with dexamethasone; Loewe-based Synergy Score; 72 h.
For a further test, the system named is KSM-12-PE cells. Briefly: Anti-proliferation assay (ATPLite, 72 h), KSM-12-PE. The format is cell-based. Conditions: in combination with CGS-21680; KSM-12-PE.
The next test has as its system EJM cells. Kind of test: Anti-proliferation assay (ATPLite, 72 h), EJM. Conditions: in combination with CGS-21680. The class given is cell-based.
The next test concerns ANBL-6 cells. Kind of test: Anti-proliferation assay (ATPLite, 72 h), ANBL-6. The class given is cell-based. The settings on record: in combination with CGS-21680.
In another test the test system is MOLP-8 cells. Briefly: Anti-proliferation assay (ATPLite, 72 h), MOLP-8. The format is cell-based. Conditions: in combination with CGS-21680.

With `COC1=C2C[C@@H](C)C[C@H](OC)[C@H](O)[C@@H](C)/C=C(\C)[C@H](OC(N)=O)[C@@H](OC)/C=C\C=C(/C)C(=O)NC(=CC1=O)C2=O` [Geldanomycin], the “percent inhibition of cell proliferation” value in test [1] (Geldanomycin 0.0064 μM alone) is reported as −5.8%; in [1] (Geldanomycin 0.019 μM alone), −7.8%; in test [1] (Geldanomycin 0.057 μM alone), 7.6%; in test [1] (Geldanomycin 0.17 μM alone), 12%; in test [1] (Geldanomycin 0.52 μM alone), 19%; in test [2] (Geldanomycin 0.0064 μM alone), 4.7%. Further, the “percent inhibition of cell proliferation” value is listed as 4.3% in [2] (Geldanomycin 0.019 μM alone), 6.7% in test [2] (Geldanomycin 0.057 μM alone), 14% in test [2] (Geldanomycin 0.17 μM alone) and 27% in test [2] (Geldanomycin 0.52 μM alone).

As to `CC(/C=C/C(=O)NO)=C\[C@@H](C)C(=O)c1ccc(N(C)C)cc1` [Trichostatin A], the “percent inhibition of cell proliferation” value in the test on OPM2 cells (Trichostatin A 0.0063 μM alone) is given as 13%; in the test with OPM2 cells (Trichostatin A 0.025 μM alone), 48%; with OPM2 cells (Trichostatin A 0.05 μM alone), 76%; in the test on OPM2 cells (Trichostatin A 0.1 μM alone), 99%; in test [2] (Trichostatin A 0.0063 μM alone) it was 24%; in test [2] (Trichostatin A 0.025 μM alone) it was 78%. The “percent inhibition of cell proliferation” value in test [2] (Trichostatin A 0.05 μM alone) and in test [2] (Trichostatin A 0.1 μM alone) was 100% each time.

As for `CNC(=O)[C@H]1O[C@@H](n2cnc3c(NCc4cccc(I)c4)ncnc32)[C@H](O)[C@@H]1O` [IB-MECA, N^6-(3-iodobenzyl)-5′-N-methylcarboxamidoadenosine], the “activity and synergy in antiproliferation assays” value in the test with MM.1S cells [3] was “active and synergistic”. Moreover, the figures for the synergy score in test [4] and in test [5] were 2.91 and 2.23, respectively.

For `CNC(=O)[C@H]1O[C@@H](n2cnc3c(NCc4cccc(I)c4)nc(Cl)nc32)[C@H](O)[C@@H]1O` [Chloro-IB-MECA, 2-chloro-N^6-(3-iodobenzyl)-5′-N-methylcarboxamidoadenosine], the “Percent inhibition of cell growth by Chloro-IB-MECA” value (from here on “Percent inhibition of cell growth”) is recorded as 5.2% in the test with MM.1S cells [6] (Cl-IB-MECA 0.19 μM, 78 nM SCH58261); 19% with MM.1S cells [6] (Cl-IB-MECA 0.19 μM, 87 nM MRS1523); 7.4% in the test on MM.1S cells [6] (Cl-IB-MECA 0.19 μM, 89 nM DPCPX); 25% in the test with MM.1S cells [6] (Cl-IB-MECA 0.19 μM, 89 nM MRS1754); −3.8% in the test with MM.1S cells [6] (Cl-IB-MECA 0.19 μM, 150 nM SCH58261); 26% in the test with MM.1S cells [6] (Cl-IB-MECA 0.19 μM, 170 nM MRS1523). Further, the “Percent inhibition of cell growth” value with MM.1S cells [6] (Cl-IB-MECA 0.19 μM, 174 nM DPCPX) was 12%; in the test with MM.1S cells [6] (Cl-IB-MECA 0.19 μM, 175 nM MRS1754), 21%; in the test with MM.1S cells [6] (Cl-IB-MECA 0.19 μM, no antagonist), 20%; in the test with MM.1S cells [6] (Cl-IB-MECA 1.5 μM, 78 nM SCH58261), 8.1%; in the test with MM.1S cells [6] (Cl-IB-MECA 1.5 μM, 87 nM MRS1523), 54%; with MM.1S cells [6] (Cl-IB-MECA 1.5 μM, 89 nM DPCPX) it was 47%. Besides, the “Percent inhibition of cell growth” value with MM.1S cells [6] (Cl-IB-MECA 1.5 μM, 89 nM MRS1754) came out at 50%; with MM.1S cells [6] (Cl-IB-MECA 1.5 μM, 150 nM SCH58261) it was 4.3%; with MM.1S cells [6] (Cl-IB-MECA 1.5 μM, 170 nM MRS1523) it was 61%; in the test on MM.1S cells [6] (Cl-IB-MECA 1.5 μM, 174 nM DPCPX), 46%; in the test on MM.1S cells [6] (Cl-IB-MECA 1.5 μM, 175 nM MRS1754) it was 45%; in the test with MM.1S cells [6] (Cl-IB-MECA 1.5 μM, no antagonist), 61%. Further, the “Percent inhibition of cell growth” value was determined as 28% in the test with MM.1S cells [6] (Cl-IB-MECA 3.1 μM, 78 nM SCH58261); 69% in the test with MM.1S cells [6] (Cl-IB-MECA 3.1 μM, 87 nM MRS1523); 64% in the test on MM.1S cells [6] (Cl-IB-MECA 3.1 μM, 89 nM DPCPX); 71% in the test with MM.1S cells [6] (Cl-IB-MECA 3.1 μM, 89 nM MRS1754); 16% in the test with MM.1S cells [6] (Cl-IB-MECA 3.1 μM, 150 nM SCH58261); 74% in the test on MM.1S cells [6] (Cl-IB-MECA 3.1 μM, 170 nM MRS1523). The “Percent inhibition of cell growth” value in the test on MM.1S cells [6] (Cl-IB-MECA 3.1 μM, 174 nM DPCPX) stood at 60%; with MM.1S cells [6] (Cl-IB-MECA 3.1 μM, 175 nM MRS1754), 72%; in the test with MM.1S cells [6] (Cl-IB-MECA 3.1 μM, no antagonist) it was 70%. Besides, the “Synergy score with dexamethasone, RPMI-8226” value with RPMI-8226 cells is recorded as 5.61. In addition, in the test on H929 cells, the “Synergy score with dexamethasone, H929” value stood at 5.29. For the same compound, the “percent inhibition of cell proliferation” value in the test with MM.1S cells [3] (Cl-IB-MECA 0.352 nM, 72 h) is 16%; in the test with MM.1S cells [3] (Cl-IB-MECA 1.06 nM, 72 h), 5.9%; with MM.1S cells [3] (Cl-IB-MECA 3.16 nM, 72 h), 6.3%; with MM.1S cells [3] (Cl-IB-MECA 9.49 nM, 72 h), 9.1%; in the test with MM.1S cells [3] (Cl-IB-MECA 28.5 nM, 72 h) it was −0.6%; in the test on MM.1S cells [3] (Cl-IB-MECA 85.4 nM, 72 h), 6.3%. Also, the “percent inhibition of cell proliferation” value in the test with MM.1S cells [3] (Cl-IB-MECA 256 nM, 72 h) was determined as 27%; in the test with MM.1S cells [3] (Cl-IB-MECA 769 nM, 72 h) it was 71%. Besides, the pIC50 in the test with MM.1S cells [3] (Homo sapiens, MM1.S, read-out: IC50 (no IL-6)) was 6.08. In the test with MM.1S cells [3], the “activity and synergy in antiproliferation assays” value is “active and synergistic”. Moreover, the “Synergy score with dexamethasone, MM.1S” value in the test on MM.1S cells [3] (combination with dexamethasone, Loewe-based Synergy Score, 72 h) turned out to be 8.37. The synergy score in test [4] is 3.17.

Turning to `Nc1cccc2c1CN(C1CCC(=O)NC1=O)C2=O` (centres unmarked) [lenalidomide], the synergy score is on record as 1.36 in the test on OPM2 cells; 4.87 in the test with MM.1S cells [3]; 0.83 in the test on KSM-12-PE cells; 0.32 in the test on EJM cells; 1.45 in the test on ANBL-6 cells; 1.65 in the test on MOLP-8 cells.

Turning to `COc1cccc2c1C(=O)c1c(O)c3c(c(O)c1C2=O)C[C@@](O)(C(=O)CO)C[C@@H]3O[C@H]1C[C@H](N)[C@H](O)[C@H](C)O1` [doxorubicin], the synergy score is listed as 0.46 in the test on OPM2 cells; 1.65 in the test on MM.1S cells [3]; 0.81 with KSM-12-PE cells; 1.21 in the test on EJM cells; 2.54 in the test on ANBL-6 cells; 1.16 in the test on MOLP-8 cells.
